Results: patent publication US20190330142A1, “INHIBITORS OF MTOR-DEPTOR INTERACTIONS AND METHODS OF USE THEREOF” (The Regents of the University of California, priority 2016, published 2019)
Read-outs that look alike come from different tables or passages of the source.

Key:
[1] = tested on: normal peripheral blood lymphocytes (PBLs); assay: survival of normal peripheral blood lymphocytes versus 8226 MM cells; type: cell-based; conditions: 48 hr assays
Procedure: (§1) FIG. 5A-FIG. 5E depict exemplary assay data of compounds disclosed herein. […] Therapeutic indices (TIs) calculated as IC50 PBLs/IC50 for 8226 cells.
(§2) To compare anti-myeloma efficacy to non-specific toxicity, each of these 5 active derivatives were compared to compound B in their ability to inhibit survival of 8226 MM cells versus normal peripheral blood lymphocytes (PBLs). In head-to-head experiments, IC50 values for each target were calculated and compared. […] These derivatives were also tested for their anti-MM cytotoxicity in isogenic lines with RAPTOR knockdown.

[2] = tested on: RAPTOR-silenced MM cells; assay: MTT cytotoxicity in RAPTOR-silenced MM cells; type: cell-based; conditions: 48 hrs
Procedure: as §1, §2
The short hairpin RNAs (shRNA)/pLKO.1, targeting RAPTOR or a scrambled sequence (control) were obtained from Addgene. Lentivirus was produced by the UCLA Vector Core facility and stable cell lines were made by transducing cells with lentivirus and selecting in […].

[3] = target: T1, DEPTOR/mTOR binding (Homo sapiens, UniProt Q8TB45); assay: DEPTOR/mTOR co-immunoprecipitation in 8226 MM cells; type: cell-based; conditions: for DEPTOR/mTOR binding in MM cells: 6 hrs
T1 construct: Western blot confirmed a significant over-expression of DEPTOR protein; host or cells: 8226 multiple myeloma cells
T1 sequence (Q8TB45 whole entry): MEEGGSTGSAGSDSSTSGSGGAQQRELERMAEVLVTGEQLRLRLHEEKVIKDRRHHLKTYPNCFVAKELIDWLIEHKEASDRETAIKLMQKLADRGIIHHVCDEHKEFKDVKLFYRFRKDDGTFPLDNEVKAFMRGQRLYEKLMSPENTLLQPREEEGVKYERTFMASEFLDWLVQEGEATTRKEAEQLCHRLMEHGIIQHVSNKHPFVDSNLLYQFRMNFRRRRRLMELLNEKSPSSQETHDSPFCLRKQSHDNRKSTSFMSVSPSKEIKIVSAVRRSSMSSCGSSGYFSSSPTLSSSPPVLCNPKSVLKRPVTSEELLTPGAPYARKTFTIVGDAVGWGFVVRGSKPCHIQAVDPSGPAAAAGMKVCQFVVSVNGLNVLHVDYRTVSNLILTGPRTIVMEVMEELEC

[4] = tested on: 8226 cells; assay: apoptosis assay (activated caspase 3, flow cytometry) in 8226 cells; type: cell-based; conditions: 48 hrs
Procedure: (§3) These were then studied in more detail. […] This was clearly shown for 4d, 4e, 4 g, and 3 g.
To identify apoptotic cells, a phycoerythrin (PE)-conjugated antibody specific for activated caspase 3 (BD Biosciences) was used. For staining, 10^6 cells were washed with PB S and fixed and permeabilized with 0.5 ml cytofix/cytoperm solution. The cells were then incubated with a 1:5 dilution of PE-conjugated monoclonal anti-caspase 3 antibody for 30 mins and analyzed by flow cytometry.

[5] = tested on: MM1.S MM cell line; assay: MTT cytotoxicity assay, MM1.S cells; type: cell-based; conditions: Homo sapiens, 48 hr
Procedure: The MTT assay was performed by seeding 1-2×10^4 target cells in 0.1 ml of complete media into wells of a 96 well microtiter plate. After incubation with compounds, the reduction of MTT to formazan by live cells was determined with a microplate ELISA reader equipped with a 570 nm filter. Quadruplicate wells were run for each group and the SD of each group was always <5% of the mean.

[6] = tested on: p70 phosphorylation (mTORC1 activity) in 8226 cells; assay: p70 phosphorylation Western blot (TORC1 activity) in 8226 cells; type: cell-based; conditions: 6 hrs; for induction of p70 phosphorylation: 8226 cells, 0.5 uM, compared to compound B; for p70 phosphorylation vs compound B at lower concentrations: as low as 0.25 uM
Procedure: In mTORC1, mTOR phosphorylates the p70S6 kinase.
(§4) The 8226 and MM1.S myeloma cell lines were purchased from ATCC. The cell lines were characterized by FISH analysis and shown to contain MAF/Ig translocations. Western blot confirmed a significant over-expression of DEPTOR protein. Both lines were tested for mycoplasma within the last 6 months and were negative. Western blot assay—Protein was extracted and separated by 12.5% SDS-PAGE as previously described (see new ref below). Proteins were transferred to polyvinylidene difluoride membranes and their expression was detected utilizing specific antibodies purchased from Cell Signaling (Beverly, Mass.).

[7] = tested on: 8226 MM cell line; assay: MTT cytotoxicity assay, 8226 MM cells; conditions: for anti-MM cytotoxicity in MTT assay compared to parent B: 48 hr MTT
Procedure: In mTORC1, mTOR phosphorylates the p70S6 kinase. Thus, a Western blot was used to test for induction of p70 phosphorylation in this secondary screen. Compounds were tested at 0.5, 1, and 2 uM with 6 hrs in vitro exposure. […] A summary of the p70 phosphorylation data from 4 separate experiments where derivatives were used at 0.5 uM, is shown in FIG. 3B. These first 8 derivatives were also screened for cytotoxicity against the same 8226 MM cell line in 48 hr MTT assays.
P70 phosphorylation was measured in 8226 cells treated for 6 hrs. […] The structures and biological activity of all derivatives are shown in Tables 1-4, categorized by structural modification.
The MTT assay was performed by seeding 1-2×10^4 target cells in 0.1 ml of complete media into wells of a 96 well microtiter plate. After incubation with compounds, the reduction of MTT to formazan by live cells was determined with a microplate ELISA reader equipped with a 570 nm filter.
The induction of p70 phosphorylation by derivative compounds was determined by densitometry, comparing immunoblot signals of phosphorylated p70 vs total p70. This ratio was then compared to that resulting from parental compound B, with the latter ratio arbitrarily placed at ‘1’. The IC50 for MTT cytotoxicity was determined using a range of concentrations of derivatives. Percent apoptosis was enumerated by flow cytometry in drug-treated cultures by subtracting control apoptosis determined from DMSO-treated cultures.

[8] = tested on: p21 expression; assay: p21 expression immunoblot; type: cell-based
Procedure: as §3, §4

[9] = target: T2, DEPTOR-mTOR interaction (Homo sapiens, UniProt Q8TB45); assay: yeast-2-hybrid screen of NCI library; type: cell-based; conditions: pilot screening, hits
T2 construct: expressed in transfected cells; host or cells: yeast (two-hybrid)
T2 sequence (Q8TB45 whole entry): as above
Text: (§5) The third compound, NSC118305, presented several positions for variation but we were worried about the conjugated diene unit since such polyolefinic units might give a rise to non-selective toxicity. […] Therefore the final compound shown, NSC 126405, which was called simply compound B, was chosen as the first compound to modify to try to improve its activity.

[10] = tested on: OPM2; assay: therapeutic index against OPM2 myeloma cell line; type: cell-based
Text: (§6) FIG. 6A-FIG. 6D depict exemplary assay data for compounds disclosed herein. […] FIG. 6D highlights IC50 data for 3 g and Compound B (NSC126405).

[11] = tested on: H929; assay: therapeutic index against H929 myeloma cell line; type: cell-based
Text: as §6

[12] = target: T3, DEPTOR (Homo sapiens, UniProt Q8TB45); assay: DEPTOR degradation; type: cell-based
T3 construct: endogenous in cells
T3 sequence (Q8TB45 whole entry): as above
Text: FIG. 7A-FIG. 7F depict exemplary assay data for compounds disclosed herein. […] FIG. 7E and FIG. 7F depict data showing the anti-tumor effect was blunted by further transfection of DEPTOR to over-express the protein.

[13] = tested on: 8226 myeloma tumors; assay: subcutaneous xenograft tumor model of myeloma growth; type: in vivo, mice; conditions: 20 mg/kg IP daily for 4 days
Procedure: Peripheral blood was analyzed for white blood cell (WBC), hematocrit (HCT), hemoglobin concentration (HgI) and platelet count.
Briefly, mice were challenged subcutaneously with 5×10^6 8226 cells and when myeloma tumors reached 500 mm^3, mice were treated with DMSO, compound B, or compound 3g (at 20 mg/kg) IP daily for 4 days. Tumor size (mean+/−SD, n=5) was assessed each day (FIG. 8A). *=different from control (DMSO), p<0.05, **=different from compound B, p<0.05. After 4 days of treatment, mice were sacrificed and peripheral blood analyzed for WBC, hematocrit (HCT), hemoglobin concentration (HgI) and platelet count (FIG. 8B). Data are % of control (determination in DMSO-Rx'd mice), mean+/−SD, n=5. *=different from DMSO control, p<0.05.

[14] = tested on: normal hematopoietic colony forming cells; assay: colony formation of normal hematopoietic colony forming cells; type: cell-based; conditions: concentrations as high as 10 μM
Text: as §5

[15] = 48 h, read-out: MTT (IC50, uM) 8226

| Compound | therapeutic index (IC50 PBLs/IC50 for 8226 cells) compared to compound B [1] | cytotoxicity against RAPTOR-silenced MM cells vs control shSCRAMBLE [2] | DEPTOR/mTOR binding in MM cells ([3]; 0.5 uM) | apoptosis activity compared to parent compound B [4] | IC50 [5] | induction of p70 phosphorylation [6] | p70 phosphorylation vs compound B at lower concentrations [6] | IC50 [7, 15] | anti-MM cytotoxicity in MTT assay compared to parent B [7] | p21 expression compared to parent compound B [8] | inhibition of the DEPTOR-mTOR interaction [9] | further results |
| --- | --- | --- | --- | --- | --- | --- | --- | --- | --- | --- | --- | --- |
| Fc1ccc(NN=C2C(Cl)=C(Cl)C(Cl)=C2Cl)cc1 [3k, 1-(4-Fluorophenyl)-2-(perchlorocyclopenta-2,4-dien-1-ylidene)hydrazine] | significantly improved therapeutic indices | significantly decreased cytotoxicity | prevented DEPTOR/mTOR binding | enhanced compared to parent compound B | 1.3 µM | much better activity | significantly more effective | 0.7 µM | enhanced cytotoxic effects |  |  |  |
| CC(C)(C)OC(=O)NN=C1C(Cl)=C(Cl)C(Cl)=C1Cl [4g, tert-Butyl 2-(perchlorocyclopenta-2,4-dien-1-ylidene)hydrazine-1-carboxylate] | significantly improved therapeutic indices | significantly decreased cytotoxicity | prevented DEPTOR/mTOR binding | enhanced compared to parent compound B | 0.6 µM |  | significantly more effective | 0.1 µM | enhanced cytotoxic effects | enhanced p21 expression |  |  |
| CN(C)c1ccc(/C=C2\C=Cc3ccccc32)cc1F [NSC118305] |  |  |  |  |  |  |  |  |  |  | specifically inhibited the DEPTOR-mTOR interaction |  |
| CCCCCCCCNS(=O)(=O)c1ccccc1 [NSC119670] |  |  |  |  |  |  |  |  |  |  | specifically inhibited the DEPTOR-mTOR interaction |  |
| FC(F)(F)c1cccc(NN=C2C(Cl)=C(Cl)C(Cl)=C2Cl)c1 [compound 3g, 1-(Perchlorocyclopenta-2,4-dien-1-ylidene)-2-(3-(trifluoromethyl)phenyl)hydrazine] | enhanced therapeutic index | significantly decreased cytotoxicity | prevented DEPTOR/mTOR binding | enhanced compared to parent compound B | 1 µM |  | significantly more effective | 0.17 µM | enhanced cytotoxic effects | enhanced p21 expression |  | therapeutic index versus NSC126405 [10]: enhanced therapeutic index; therapeutic index (IC50 PBLs/IC50 for 8226 cells) compared to compound B ([1]; listed as 3 g): significantly improved therapeutic indices; therapeutic index versus NSC126405 [11]: enhanced therapeutic index; degradation of DEPTOR [12]: induces the rapid proteasome-dependent degradation of DEPTOR; binding of DEPTOR to mTOR ([3]; concentration not given): inhibits binding of DEPTOR to mTOR; anti-tumor efficacy (tumor size) [13]: more efficacious than NSC 126405; effect on normal WBC counts ([13]; peripheral blood): only a minimal effect |
| NN=C1C(Cl)=C(Cl)C(Cl)=C1Cl [compound B, (Perchlorocyclopenta-2,4-dien-1-ylidene)hydrazine, reference compound] |  |  | ineffective |  | 3 µM | consistently ineffective |  |  |  |  | specifically inhibited the DEPTOR-mTOR interaction | DEPTOR/mTOR binding in MM cells ([3]; 1 uM): prevents DEPTOR/mTOR binding; IC50 ([7]; 48 h, read-out: MTT (IC50, uM) 8226, 48 hr): 1.3 µM; IC50 ([7]; read-out: MTT (IC50, uM) 8226, 48 hr): 1.5 µM; toxicity to normal hematopoietic colony formation [14]: not toxic to colony formation |
